Values quoted from earlier work, collected in patent US7070816B2, “Methods for treating prostatic intraepithelial neoplasia with herbal compositions” (New Chapter, Inc., priority 2003, dated 2006).
Each block holds one compound with its values, some of them ahead of it.

Tests used:
COX-2 = target: T1, COX-2 (Homo sapiens, UniProt P35354)
T1 sequence (P35354 18-604): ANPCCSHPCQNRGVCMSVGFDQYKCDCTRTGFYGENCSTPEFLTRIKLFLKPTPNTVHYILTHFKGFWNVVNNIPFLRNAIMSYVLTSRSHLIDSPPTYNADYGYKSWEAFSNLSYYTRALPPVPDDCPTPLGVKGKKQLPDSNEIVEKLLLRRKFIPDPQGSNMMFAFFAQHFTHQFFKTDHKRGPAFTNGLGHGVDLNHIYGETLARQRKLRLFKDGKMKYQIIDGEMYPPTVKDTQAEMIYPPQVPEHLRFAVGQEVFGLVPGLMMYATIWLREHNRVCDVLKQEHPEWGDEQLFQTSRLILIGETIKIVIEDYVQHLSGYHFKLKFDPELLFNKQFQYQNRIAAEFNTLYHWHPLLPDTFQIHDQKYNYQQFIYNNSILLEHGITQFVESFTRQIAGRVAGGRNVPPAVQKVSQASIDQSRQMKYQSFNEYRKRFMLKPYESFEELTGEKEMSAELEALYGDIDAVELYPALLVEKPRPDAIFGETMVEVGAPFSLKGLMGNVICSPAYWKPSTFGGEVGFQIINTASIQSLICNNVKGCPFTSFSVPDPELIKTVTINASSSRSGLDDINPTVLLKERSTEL

5-lipoxygenase = target: T2, 5-lipoxygenase (Homo sapiens, UniProt P09917)
T2 sequence (P09917 1-674): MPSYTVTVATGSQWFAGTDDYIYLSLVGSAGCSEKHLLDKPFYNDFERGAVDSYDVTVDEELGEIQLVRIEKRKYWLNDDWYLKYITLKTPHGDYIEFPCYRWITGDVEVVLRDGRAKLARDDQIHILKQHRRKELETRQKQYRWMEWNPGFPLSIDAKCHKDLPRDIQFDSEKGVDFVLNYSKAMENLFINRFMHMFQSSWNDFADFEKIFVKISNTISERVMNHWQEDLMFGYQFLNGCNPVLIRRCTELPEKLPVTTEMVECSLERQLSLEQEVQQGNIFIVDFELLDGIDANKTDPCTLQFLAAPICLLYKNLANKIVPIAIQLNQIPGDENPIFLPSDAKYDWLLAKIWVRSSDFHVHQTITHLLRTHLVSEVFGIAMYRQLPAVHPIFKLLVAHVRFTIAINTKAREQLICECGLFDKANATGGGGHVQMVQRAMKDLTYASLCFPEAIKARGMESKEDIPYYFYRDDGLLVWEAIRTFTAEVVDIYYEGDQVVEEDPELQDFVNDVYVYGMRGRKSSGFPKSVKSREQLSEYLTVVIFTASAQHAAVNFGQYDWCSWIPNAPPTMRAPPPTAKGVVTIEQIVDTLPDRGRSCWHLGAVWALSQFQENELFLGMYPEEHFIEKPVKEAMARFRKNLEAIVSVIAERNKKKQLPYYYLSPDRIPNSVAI

COX-1 = COX-1 (Homo sapiens, UniProt P23219)
COX-1, sequence (P23219 24-599): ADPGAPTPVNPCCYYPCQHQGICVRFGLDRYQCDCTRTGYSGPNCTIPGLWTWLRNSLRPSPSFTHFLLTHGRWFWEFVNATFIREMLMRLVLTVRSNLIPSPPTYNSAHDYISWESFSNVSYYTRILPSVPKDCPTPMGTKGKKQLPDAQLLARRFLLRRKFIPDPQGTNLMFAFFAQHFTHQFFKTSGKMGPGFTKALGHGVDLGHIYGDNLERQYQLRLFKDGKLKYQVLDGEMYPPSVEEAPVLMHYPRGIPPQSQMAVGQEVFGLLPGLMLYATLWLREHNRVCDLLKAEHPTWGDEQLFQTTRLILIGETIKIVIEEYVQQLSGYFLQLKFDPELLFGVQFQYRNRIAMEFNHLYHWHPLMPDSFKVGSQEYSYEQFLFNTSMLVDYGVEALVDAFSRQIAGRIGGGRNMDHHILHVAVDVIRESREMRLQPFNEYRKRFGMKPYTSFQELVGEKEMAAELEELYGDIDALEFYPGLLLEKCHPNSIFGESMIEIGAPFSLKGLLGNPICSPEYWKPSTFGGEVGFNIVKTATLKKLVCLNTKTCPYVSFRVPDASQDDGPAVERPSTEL

Compound: C[C@H]1[C@H](C)CC[C@]2(C(=O)O)CC[C@]3(C)C(=CC[C@@H]4[C@@]5(C)CC[C@H](O)C(C)(C)[C@@H]5CC[C@]43C)[C@H]12 [Ursolic acid]
COX-2 inhibition (COX-2): significant COX-2 inhibitory effect

Compound: C=CCc1ccc(O)c(OC)c1 [Eugenol]
5-lipoxygenase inhibition (5-lipoxygenase): 5-lipoxygenase inhibitor

Compound: Oc1cc(O)c2c(c1)O[C@H](c1ccc(O)c(O)c1)[C@@H](O)C2 [(+)-catechin]
COX-1 inhibition (COX-1): COX-1 and COX-2 inhibitors
COX-2 inhibition (COX-2): COX-1 and COX-2 inhibitors

Compound: COc1ccc2cc3[n+](cc2c1OC)CCc1cc2c(cc1-3)OCO2 [Berberine]
COX-1 inhibition (COX-1): without inhibiting COX-1 activity
COX-2 inhibition (COX-2): inhibit COX-2

Now from value to compound:

COX-2 inhibition (COX-2): COX-2 inhibitor
Compound: O=C(O)c1ccccc1O [salicylic acid]

cyclooxygenase inhibition (cyclooxygenase): inhibit cyclooxygenase
Compound: gingerols

cyclooxygenase inhibition (cyclooxygenase): inhibit cyclooxygenase
Compound: shogaols
